This data set can be described thus: Bioavailability assay in rats, Experiment IV (dimethylsulfonate). The format is in vivo. From the text:
Experiment IV Bioavailability Assay for N-[4-(3-chloro-4-fluorophenylamino)-7-(2-methoxyethoxy)quinazolin-6-yl]-2-[1-(2-methoxyethyl)piperidin-4-ylidene]acetamide Dimethylsulfonate in Rats
12 SD rats (half of them were male and half of them were female, 7-10 weeks old, weighting 200-350 g) were purchased from Beijing Vital River Laboratory Animal Technology Co., Ltd., and reared in Animal House, GLP Center, Taiping Road No. 27 courtyard. Production License Number of Beijing Vital River Laboratory Animal Technology Co., Ltd. is SCXK (Beijing) 2009-0002.
Blood (about 0.5 ml) was drawn with glass capillary from the orbital venous plexus at […], 1 h, 2 h, 3 h, 4 h, 6 h, 8 h, 12 h, and 24 h after dosing to each group of animals according to the administration scheme, and put into a heparinized centrifuge tube. The tube was gently shaken up and down, then centrifuged at 3000 r/min for […] at 4° C. The plasma was separated. 50 μl of the plasma was pipetted into a centrifuge tube (5 ml), then 50% methanol aqueous solution (50 μl ) and thienorphine-D4 isotope (50 μl) as an internal standard were added thereto and vortexed. A solution of methanol:acetonitrile=1:3 (volume ratio) was added, vortexed for 30 s so as to mix thoroughly. The resulting mixture was centrifuged at 3000 r/min for 5 mM 500 μL of the supernatant was taken out, to which 500 μl of 20% methanol solution was added for serial dilution. The mixture was vortexed for 30 s so as to mix thoroughly. The mixture was centrifuged at 13000 r/min for 5 mM, and […], of the supernatant was injected for LC/MS/MS assay.
Liquid phase conditions: A: aqueous solution (5 mmol/L ammonium acetate, 0.2% formic acid), B: methanol; column temperature 25° C.; injection volume: 10 μL; gradient elution.
MS conditions: ion source: Turbo Ionspray (ESI+); detection mode: MRM; electrical parameters: compound 1: m/z 544.2-457.1, CE (collision energy): 36.5.
The main pharmacokinetic parameters and oral bioavailability results were calculated by using DAS2.0 (statistical moment).
The pharmacokinetic parameters of statistical moments (n=6) for a single intravenous injection of 5.0 mg/kg in rats
The pharmacokinetic parameters of statistical moments (n=6) for a single intragastric administration of 5.0 mg/kg in rats
Method for the calculation of bioavailability: F=(AUCig×Div)/(AUCiv×Dig)×100%
wherein D is dose; AUC: the area under the plasma drug concentration-time curve; ig represents intragastric administration; and iv represents intravenous injection administration.

Where [1] appears, read: SD rats, single intragastric administration of 5.0 mg/kg, n=6.
The mark [2] stands for this setting: SD rats, single intravenous injection of 5.0 mg/kg, n=6.
Where [3] appears, read: both sexes, rat, plasma, po, SD rats, single intragastric administration of 5.0 mg/kg, n=6.
Setting [4] is: both sexes, rat, plasma, SD rats, single intravenous injection of 5.0 mg/kg, n=6.

As usually defined, the bioavailability is the share of a dose that reaches the circulation, judged against a reference dose that is usually intravenous. A word on the AUC(0-inf): it is the area under the concentration-time curve extrapolated to infinity. Higher therefore signals high exposure. A word on the AUC(0-t): it is the area under the concentration-time curve up to a stated or last time point. Read a high AUC(0-t) as high exposure. Broadly, the Cmax is the peak of the concentration-time curve. What is called Tmax is the time from dosing to the highest level.

As for `COCCOc1cc2ncnc(Nc3ccc(F)c(Cl)c3)c2cc1NC(=O)C=C1CCN(CCOC)CC1.CS(=O)(=O)O` [Compound 3, N-[4-(3-chloro-4-fluorophenylamino)-7-(2-methoxyethoxy)quinazolin-6-yl]-2-[1-(2-methoxyethyl)piperidin-4-ylidene]acetamide dimethylsulfonate], for the setting “SD rats, 5 mg/kg ig vs 5 mg/kg iv”, the “F (bioavailability)” value stood at 57%. In addition, under setting [1], the CLz/F worked out at 75.8 mL/min/kg and the t½z came out at 5.83 h. Besides, under setting [2], the CLz came to 43.8 mL/min/kg and the t½z worked out at 4.06 h. Besides, the bioavailability (both sexes, SD, rat, plasma, oral, 5 mg/kg, 5 mg/kg ig vs 5 mg/kg iv, read-out: F (bioavailability)) is 56.9%. Under setting [3], the area under the curve AUC(0-inf) was 902 ng·h/mL, the AUC(0-t) stood at 782 ng·h/mL, the Cmax was 75.2 ng/mL and the Tmax is 3.33 h. The Vd/F (both sexes, rat, plasma, po, SD rats, single intragastric administration of 5.0 mg/kg, n=6, read-out: Vz/F) is 36.9 L/kg. Further, under setting [4], the AUC(0-inf) was 1460 ng·h/mL, the exposure AUC(0-t) was found to be 1370 ng·h/mL, the highest concentration (Cmax) was determined as 1220 ng/mL and the Tmax was 0.02 h. Where the note is “both sexes, rat, plasma, SD rats, single intravenous injection of 5.0 mg/kg, n=6, read-out: Vz”, the Vd amounted to 15.2 L/kg.
